pKd: −log10 of the molar value. *1 amine or outer side, *2 acyl side, *3 side chain or, on linkers, in order; H or OH if unused. Where a SMILES comes first, the peptide text is derived from it. Bridges are numbered along the chain shown (N, C = ends). [ ]: non-standard residue; d: D form. The star is where a group is joined. hPhe(3-Cl-4-CF3) = N[C@@H](CCc1ccc(C(F)(F)F)c(Cl)c1)C(=O)O; X52 = CCCN([C@@H](Cc1ccc(OC(F)(F)F)cc1)C(=O)[*:2])[*:1]; NPrPhe(4-CF3) = CCCN[C@@H](Cc1ccc(C(F)(F)F)cc1)C(=O)O; X42 = Cc1ccc(C[C@@H](C(=O)[*:2])N(CC2CCC2)[*:1])cc1; NMeGly(cPent) = CN[C@H](C(=O)O)C1CCCC1; cisHyp = O=C(O)[C@@H]1C[C@H](O)CN1; NMeD = CN[C@@H](CC(=O)O)C(=O)O; NMeL = CN[C@@H](CC(C)C)C(=O)O; Morpholide = C1CN(*)CCO1; NMeA = CN[C@@H](C)C(=O)O; Ac5c = NC1(C(=O)O)CCCC1; Aze = O=C(O)[C@@H]1CCN1; Ethyl(2,2-F2) = FC(F)C*; Ac3c = NC1(C(=O)O)CC1; Sar = CNCC(=O)O
Target: GDP-bound NRAS wild-type protein (Homo sapiens, UniProt P01111)
Sequence (P01111 whole entry): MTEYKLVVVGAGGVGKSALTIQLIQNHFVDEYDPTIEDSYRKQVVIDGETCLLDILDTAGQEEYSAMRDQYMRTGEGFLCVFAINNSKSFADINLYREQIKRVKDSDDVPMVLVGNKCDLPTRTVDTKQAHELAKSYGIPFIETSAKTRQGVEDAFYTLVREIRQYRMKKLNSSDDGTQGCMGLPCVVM
Experiment: Binding to NRAS by surface plasmon resonance (SPR), Single Cycle Kinetics
Conditions: SPR KD ratio NRAS/KRAS, class symbols

Row | Compound | NRAS/KRAS (ratio of KD value with respect to GDP-bound NRAS wild-type protein to KD value with respect to KRAS)
1 | CCC[C@H]1C(=O)N[C@@H]([C@@H](C)CC)C(=O)N(C2CC2)CC(=O)N(C)[C@H]2C/C=C\CCN(C2=O)[C@@H](Cc2ccc(C)cc2)C(=O)N(C)CC(=O)N[C@@H](CCc2ccc(C(F)(F)F)c(CC)c2)C(=O)N2C[C@H](OCC)C[C@H]2C(=O)NC2(CC(C)(C)C2)C(=O)N(C)[C@@H](C2CCCC2)C(=O)N(C)[C@H](C(=O)N(C)C)CC(=O)N1C [PP2870] | A (a compound having 10 or more and less than 20 is denoted as A)
2 | CCC[C@H]1C(=O)N[C@@H]([C@@H](C)CC)C(=O)N(C2CC2)CC(=O)N(C)[C@H]2C/C=C\CCN(C2=O)[C@@H](Cc2ccc(C)cc2)C(=O)N(C)CC(=O)N[C@@H](CCc2ccc(C3CC3)c(OC)c2)C(=O)N2C[C@H](OCC)C[C@H]2C(=O)NC2(CC(C)(C)C2)C(=O)N(C)[C@@H](C2CCCC2)C(=O)N(C)[C@H](C(=O)N(C)C)CC(=O)N1C [PP2883] | A (a compound having 10 or more and less than 20 is denoted as A)

Target: GDP-bound KRAS wild-type protein (Homo sapiens, UniProt P01116)
Sequence (P01116 whole entry): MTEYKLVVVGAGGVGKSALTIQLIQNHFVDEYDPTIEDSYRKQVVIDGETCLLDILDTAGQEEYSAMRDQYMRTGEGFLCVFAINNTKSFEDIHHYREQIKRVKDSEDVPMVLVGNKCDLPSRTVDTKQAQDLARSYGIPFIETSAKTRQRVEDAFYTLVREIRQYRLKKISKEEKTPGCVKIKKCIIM
Experiment: Binding to KRAS by surface plasmon resonance (SPR), Single Cycle Kinetics
Conditions: SPR Single Cycle Kinetics, GDP-bound KRAS wild-type protein, 1:1 binding model; read-out: KRAS KD

Row | Compound | pKd
3 | CCCN1C(=O)CN(C)C(=O)CN(C)C(=O)[C@H]([C@@H](C)CC)NC(=O)[C@H](CC(C)C)N(C)C(=O)C[C@@H](C(=O)N2CCOCC2)N(C)C(=O)[C@H](C2CCCC2)N(C)C(=O)C2(CCCC2)NC(=O)[C@@H]2CCCN2C(=O)[C@H](CCc2ccc(C(F)(F)F)c(Cl)c2)NC(=O)CN(C)C(=O)[C@@H]1Cc1ccc(OC(F)(F)F)cc1 [PP0137] ([NMeL]I[Sar][Sar][X52][Sar][hPhe(3-Cl-4-CF3)]P[Ac5c][NMeGly(cPent)][NMeD]-Morpholide; lactam N-11) | 9.33
4 | CCO[C@@H]1C[C@H]2C(=O)NC3(CC(C)(C)C3)C(=O)N(C)[C@@H](C(CC)CC)C(=O)N(C)[C@H](C(=O)N3CCCCC3)CC(=O)N(C)[C@H]3CCC/C=C/c4ccc(cc4)C[C@@H](C(=O)N(C)CC(=O)N[C@@H](CCc4cc(F)c(C(F)(F)F)c(F)c4)C(=O)N2C1)N1CC/C=C\C[C@@H](C1=O)N(C)C(=O)CN(C)C(=O)[C@H]([C@@H](C)CC)NC3=O [PP2952] | 9.10
5 | CC[C@H](C)[C@@H]1NC(=O)[C@H](CC(C)C)N(C)C(=O)C[C@@H](C(=O)N2CCOCC2)N(C)C(=O)[C@H](C2CCCC2)N(C)C(=O)C2(CCCC2)NC(=O)[C@@H]2CCCN2C(=O)[C@H](CCc2ccc(C(F)(F)F)c(Cl)c2)NC(=O)CN(C)C(=O)[C@H](Cc2ccc(C)cc2)N(CC2CCC2)C(=O)[C@@H]2CCN2C(=O)[C@H](C)N(C)C1=O [PP0083] ([NMeL]I[NMeA][Aze][X42][Sar][hPhe(3-Cl-4-CF3)]P[Ac5c][NMeGly(cPent)][NMeD]-Morpholide; lactam N-11) | 8.96
6 | CCCN1C(=O)[C@@H]2CCN2C(=O)CN(C)C(=O)[C@H]([C@@H](C)CC)NC(=O)[C@H](CC(C)C)N(C)C(=O)C[C@@H](C(=O)N(C)C)NC(=O)[C@H](C2CCCC2)N(C)C(=O)C2(CCCC2)NC(=O)[C@@H]2CCCN2C(=O)[C@H](CCc2ccc(C(F)(F)F)c(Cl)c2)NC(=O)CN(C)C(=O)[C@@H]1Cc1ccc(C(F)(F)F)cc1 [PP0385] ([NMeL]I[Sar][Aze][NPrPhe(4-CF3)][Sar][hPhe(3-Cl-4-CF3)]P[Ac5c][NMeGly(cPent)]D-NMe2; lactam N-11) | 9.43
7 | CCCN1C(=O)CN(C)C(=O)CN(C)C(=O)[C@H]([C@@H](C)CC)NC(=O)[C@H](CC(C)C)N(C)C(=O)C[C@@H](C(=O)N2CCOCC2)N(C)C(=O)[C@H](C2CCCC2)N(C)C(=O)C2(CCCC2)NC(=O)[C@@H]2C[C@H](OCC(F)F)CN2C(=O)[C@H](CCc2ccc(C(F)(F)F)c(Cl)c2)NC(=O)CN(C)C(=O)[C@@H]1Cc1ccc(C(F)(F)F)cc1 [PP0245] ([NMeL]I[Sar][Sar][NPrPhe(4-CF3)][Sar][hPhe(3-Cl-4-CF3)][cisHyp](Ethyl(2,2-F2))[Ac5c][NMeGly(cPent)][NMeD]-Morpholide; lactam N-11) | 9.43
8 | CCCN1C(=O)[C@@H]2CCN2C(=O)C2(CC2)NC(=O)[C@H]([C@@H](C)CC)NC(=O)[C@H](CC(C)C)N(C)C(=O)C[C@@H](C(=O)N2CCOCC2)N(C)C(=O)[C@H](C2CCCC2)N(C)C(=O)C2(CCCC2)NC(=O)[C@@H]2CCCN2C(=O)[C@H](CCc2ccc(C(F)(F)F)c(Cl)c2)NC(=O)CN(C)C(=O)[C@@H]1Cc1ccc(C(F)(F)F)cc1 [PP0276] ([NMeL]I[Ac3c][Aze][NPrPhe(4-CF3)][Sar][hPhe(3-Cl-4-CF3)]P[Ac5c][NMeGly(cPent)][NMeD]-Morpholide; lactam N-11) | 6.82
9 | CC[C@H](C)[C@@H]1NC(=O)[C@H](CC(C)C)N(C)C(=O)C[C@@H](C(=O)N2CCOCC2)N(C)C(=O)[C@H](C2CCCC2)NC(=O)C2(CCCC2)NC(=O)[C@@H]2CCCN2C(=O)[C@H](CCc2cc(F)c(C(F)(F)F)c(F)c2)NC(=O)CN(C)C(=O)[C@H](Cc2ccc(C(F)(F)F)cc2)N2CCCCC[C@@H](C2=O)N(C)C(=O)CN(C)C1=O [PP0478] | 6.40

Target: GDP-bound HRAS wild-type protein (Homo sapiens, UniProt P01112)
Sequence (P01112 whole entry): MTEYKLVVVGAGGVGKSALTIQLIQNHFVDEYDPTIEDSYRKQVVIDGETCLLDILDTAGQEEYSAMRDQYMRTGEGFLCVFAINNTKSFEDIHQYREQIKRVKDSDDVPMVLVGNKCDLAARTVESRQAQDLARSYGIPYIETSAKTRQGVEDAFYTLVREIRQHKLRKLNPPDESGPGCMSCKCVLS
Experiment: Binding to HRAS by surface plasmon resonance (SPR), Single Cycle Kinetics
Conditions: SPR KD ratio HRAS/KRAS, class symbols

Row | Compound | HRAS/KRAS (ratio of KD value with respect to GDP-bound HRAS wild-type protein to KD value with respect to KRAS)
10 | CCC[C@H]1C(=O)N[C@@H]([C@@H](C)CC)C(=O)N(C2CC2)CC(=O)N(C)[C@H]2C/C=C\CCN(C2=O)[C@@H](Cc2ccc(C)cc2)C(=O)N(C)CC(=O)N[C@@H](CCc2ccc(C(F)(F)F)c(CC)c2)C(=O)N2C[C@H](OCC)C[C@H]2C(=O)NC2(CC(C)(C)C2)C(=O)N(C)[C@@H](C2CCCC2)C(=O)N(C)[C@H](C(=O)N(C)C)CC(=O)N1C [PP2870] | A (a compound having 10 or more and less than 20 is denoted as A)
11 | CCC[C@H]1C(=O)N[C@@H]([C@@H](C)CC)C(=O)N(C2CC2)CC(=O)N(C)[C@H]2C/C=C\CCN(C2=O)[C@@H](Cc2ccc(C)cc2)C(=O)N(C)CC(=O)N[C@@H](CCc2ccc(C3CC3)c(OC)c2)C(=O)N2C[C@H](OCC)C[C@H]2C(=O)NC2(CC(C)(C)C2)C(=O)N(C)[C@@H](C2CCCC2)C(=O)N(C)[C@H](C(=O)N(C)C)CC(=O)N1C [PP2883] | A (a compound having 10 or more and less than 20 is denoted as A)

Reference: patent US20240158446A1, “CYCLIC COMPOUND HAVING SELECTIVE INHIBITORY ACTION ON KRAS OVER HRAS AND NRAS” (CHUGAI SEIYAKU KABUSHIKI KAISHA, priority 2021, published 2024)
